Laboratory results as given in the supplement of paper PMC10883282.
Structures can show the parent of a compound that is named as a salt. ± gives the standard deviation of the averaged measurements.

Test system: SW684
Assay: relative viability vs DMSO control (72 h) (fraction); higher = more viable cells
Procedure, shortened: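 A 5 µM positive control and 0.1% DMSO vehicle ran alongside sarcoma cell lines seeded in 384-well plates to reach 80–90% confluence. Serially diluted compound, 2.5 µl from source plates of 10 mM to 0.0002 mM, was added after 24 h, and the plates were held 72 h at 37 °C, 5% CO2. Relative viability was worked out from ATPLite readings as percent growth averaged over up to triplicate wells. The values were rescaled so that 1 is full and 0 is none.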

Row | SMILES | relative viability (0.00017 µM) | relative viability (0.00051 µM) | relative viability (0.00152 µM) | relative viability (0.00457 µM) | relative viability (0.01372 µM) | relative viability (0.04115 µM) | relative viability (0.1235 µM) | relative viability (0.3704 µM) | relative viability (1.111 µM) | relative viability (3.333 µM) | relative viability (10 µM)
1 | Cc1nc(NC(=O)N2CCC[C@H]2C(N)=O)sc1-c1ccnc(C(C)(C)C(F)(F)F)c1 [Alpelisib] | 1.09 ± 0.054 | 1.12 ± 0.043 | 1.12 ± 0.059 | 1.15 ± 0.065 | 1.09 ± 0.089 | 1.05 ± 0.026 | 1.07 ± 0.061 | 0.968 ± 0.025 | 0.876 ± 0.0097 | 0.643 ± 0.025 | 0.446 ± 0.036
2 | Cn1cnc2c(F)c(Nc3ccc(Br)cc3F)c(C(=O)NOCCO)cc21 [Binimetinib] | 1.12 ± 0.038 | 1.17 ± 0.046 | 1.11 ± 0.03 | 1.11 ± 0.028 | 1.14 ± 0.037 | 1.12 ± 0.069 | 1.06 ± 0.058 | 1.01 ± 0.071 | 0.953 ± 0.035 | 0.847 ± 0.035 | 0.642 ± 0.018
3 | CCc1cc2c(cc1N1CCC(N3CCOCC3)CC1)C(C)(C)c1[nH]c3cc(C#N)ccc3c1C2=O [Alectinib] | 1.15 ± 0.037 | 1.13 ± 0.066 | 1.11 ± 0.035 | 1.129 ± 0.011 | 1.19 ± 0.058 | 1.2 ± 0.1 | 1.21 ± 0.055 | 1.22 ± 0.073 | 1.2 ± 0.055 | 1.16 ± 0.022 | 1.18 ± 0.04
4 | Cc1cc(C)c(/C=C2\C(=O)Nc3ccccc32)[nH]1 [Semaxanib] | 0.981 ± 0.022 | 0.962 ± 0.03 | 0.994 ± 0.026 | 0.935 ± 0.018 | 0.917 ± 0.02 | 0.8931 ± 0.0076 | 0.901 ± 0.046 | 0.923 ± 0.029 | 0.932 ± 0.06 | 0.902 ± 0.072 | 0.812 ± 0.017
5 | CC1(C)CNc2cc(NC(=O)c3cccnc3NCc3ccncc3)ccc21 [Motesanib] | 1.04 ± 0.033 | 0.999 ± 0.073 | 0.999 ± 0.065 | 1.01 ± 0.084 | 0.978 ± 0.016 | 0.9719 ± 0.0041 | 0.99 ± 0.079 | 0.94 ± 0.016 | 0.98 ± 0.064 | 1.02 ± 0.043 | 0.859 ± 0.039
6 | CNC(=O)c1ccc(-c2cnc3ncc(Cc4ccc5ncccc5c4)n3n2)cc1F [Capmatinib] | 1.19 ± 0.017 | 1.2 ± 0.043 | 1.19 ± 0.047 | 1.15 ± 0.056 | 1.12 ± 0.046 | 1.127 ± 0.0092 | 1.13 ± 0.029 | 1.14 ± 0.085 | 1.17 ± 0.06 | 1.13 ± 0.052 | 1.05 ± 0.045
7 | CC(C)N1CCN(Cc2cnc(-c3cc(-c4cccc5[nH]ccc45)cc4[nH]ncc34)o2)CC1 [Nemiralisib] | 1 ± 0.084 | 0.911 ± 0.069 | 0.851 ± 0.033 | 0.804 ± 0.014 | 0.721 ± 0.019 | 0.68 ± 0.051 | 0.695 ± 0.011 | 0.618 ± 0.03 | 0.541 ± 0.035 | 0.548 ± 0.027 | 0.444 ± 0.043
8 | CO[C@H]1C[C@@H]2CC[C@@H](C)[C@@](O)(O2)C(=O)C(=O)N2CCCC[C@H]2C(=O)O[C@H]([C@H](C)C[C@@H]2CC[C@@H](OP(C)(C)=O)[C@H](OC)C2)CC(=O)[C@H](C)/C=C(\C)[C@@H](O)[C@@H](OC)C(=O)[C@H](C)C[C@H](C)/C=C/C=C/C=C/1C [Ridaforolimus] | 1.14 ± 0.081 | 1.11 ± 0.065 | 1.07 ± 0.021 | 0.971 ± 0.07 | 0.896 ± 0.043 | 0.862 ± 0.026 | 0.839 ± 0.033 | 0.846 ± 0.049 | 0.833 ± 0.025 | 0.791 ± 0.045 | 0.749 ± 0.068
9 | Nc1cc(C(F)(F)F)c(-c2cc(N3CCOCC3)nc(N3CCOCC3)n2)cn1 [Buparlisib] | 1.12 ± 0.044 | 1.14 ± 0.075 | 1.11 ± 0.047 | 1.11 ± 0.04 | 1.08 ± 0.049 | 1.09 ± 0.077 | 1.03 ± 0.016 | 0.9 ± 0.055 | 0.599 ± 0.041 | 0.38 ± 0.022 | 0.282 ± 0.0065
10 | Cc1ccc(F)c(NC(=O)Nc2ccc(-c3cccc4[nH]nc(N)c34)cc2)c1 [Linifanib] | 1.11 ± 0.014 | 1.14 ± 0.02 | 1.13 ± 0.039 | 1.18 ± 0.03 | 1.17 ± 0.023 | 1.18 ± 0.04 | 1.15 ± 0.027 | 1.139 ± 0.011 | 1.16 ± 0.045 | 1.15 ± 0.049 | 1.12 ± 0.041
11 | N#CC[C@H](C1CCCC1)n1cc(-c2ncnc3[nH]ccc23)cn1 [Ruxolitinib] | 0.985 ± 0.022 | 1.062 ± 0.005 | 1.03 ± 0.017 | 1.04 ± 0.072 | 0.991 ± 0.028 | 0.976 ± 0.035 | 0.978 ± 0.023 | 0.9518 ± 0.0033 | 0.912 ± 0.032 | 0.915 ± 0.036 | 0.777 ± 0.012
12 | C=CC(=O)Nc1cccc(Oc2nc(Nc3ccc(N4CCN(C)CC4)cc3)nc3ccsc23)c1 [Olmutinib] | 1.07 ± 0.043 | 1.14 ± 0.069 | 1.08 ± 0.029 | 1.15 ± 0.061 | 1.05 ± 0.014 | 1.09 ± 0.025 | 1.149 ± 0.0031 | 1.14 ± 0.073 | 1.07 ± 0.049 | 0.849 ± 0.032 | 0.0282 ± 0.0066
13 | CCCS(=O)(=O)Nc1ccc(F)c(C(=O)c2c[nH]c3ncc(-c4ccc(Cl)cc4)cc23)c1F [Vemurafenib] | 1.18 ± 0.038 | 1.26 ± 0.02 | 1.18 ± 0.073 | 1.21 ± 0.054 | 1.205 ± 0.0029 | 1.18 ± 0.032 | 1.207 ± 0.0074 | 1.21 ± 0.034 | 1.21 ± 0.035 | 1.04 ± 0.033 | 0.804 ± 0.17
14 | Cc1ccc(NC(=O)c2ccc(CN3CCN(C)CC3)cc2)cc1Nc1nc(-c2cccnc2)cs1 [Masitinib] | 1.04 ± 0.017 | 1.07 ± 0.038 | 1.11 ± 0.029 | 1.08 ± 0.027 | 1.07 ± 0.034 | 1.1 ± 0.025 | 1.06 ± 0.043 | 1 ± 0.025 | 0.851 ± 0.014 | 0.508 ± 0.066 | 0.0554 ± 0.0057
15 | Cc1cnc(Nc2ccc(OCCN3CCCC3)cc2)nc1Nc1cccc(S(=O)(=O)NC(C)(C)C)c1 [Fedratinib] | 1.12 ± 0.04 | 1.16 ± 0.04 | 1.17 ± 0.081 | 1.16 ± 0.021 | 1.15 ± 0.047 | 1.13 ± 0.038 | 1.1 ± 0.029 | 1 ± 0.023 | 0.666 ± 0.04 | 0.399 ± 0.018 | 0.0027
16 | C[C@@H](c1ccc2nccn2c1)n1nnc2ncc(-c3cnn(C)c3)nc21 [Volitinib] | 1.17 ± 0.067 | 1.17 ± 0.028 | 1.17 ± 0.022 | 1.14 ± 0.083 | 1.18 ± 0.048 | 1.17 ± 0.034 | 1.16 ± 0.064 | 1.15 ± 0.032 | 1.13 ± 0.019 | 1.13 ± 0.018 | 0.968 ± 0.092
17 | COc1cccc2c1C(=O)c1c(O)c3c(c(O)c1C2=O)C[C@@](O)(C(=O)CO)C[C@@H]3O[C@H]1C[C@H](N)[C@H](O)[C@H](C)O1 [Doxorubicin Hydrochloride] | 1.21 ± 0.03 | 1.21 ± 0.023 | 1.2 ± 0.058 | 1.157 ± 0.0079 | 1.06 ± 0.044 | 0.96 ± 0.031 | 0.821 ± 0.062 | 0.731 ± 0.14 | 0.813 ± 0.013 | 0.803 ± 0.033 | 0.693 ± 0.024
18 | CCN1CCN(Cc2ccc(Nc3ncc(F)c(-c4cc(F)c5nc(C)n(C(C)C)c5c4)n3)nc2)CC1 [Abemaciclib] | 1.13 ± 0.036 | 1.16 ± 0.06 | 1.13 ± 0.048 | 1.12 ± 0.035 | 1.1 ± 0.051 | 1.11 ± 0.051 | 1.04 ± 0.037 | 0.894 ± 0.059 | 0.781 ± 0.028 | 0.832 ± 0.027 | 0.825 ± 0.035
19 | C=CC(=O)N1CCC([C@@H]2CCNc3c(C(N)=O)c(-c4ccc(Oc5ccccc5)cc4)nn32)CC1 [Zanubrutinib] | 0.998 ± 0.075 | 1.03 ± 0.08 | 1 ± 0.07 | 0.998 ± 0.054 | 1 ± 0.069 | 1.01 ± 0.028 | 1.01 ± 0.047 | 0.978 ± 0.074 | 0.985 ± 0.048 | 0.925 ± 0.038 | 0.89 ± 0.042
20 | COc1cc2/c(=N/c3ccc(Br)cc3F)nc[nH]c2cc1OCC1CCN(C)CC1 [Vandetanib] | 1.13 ± 0.018 | 1.09 ± 0.075 | 1.14 ± 0.035 | 1.12 ± 0.074 | 1.16 ± 0.033 | 1.16 ± 0.02 | 1.16 ± 0.069 | 1.168 ± 0.0075 | 1.15 ± 0.038 | 1.03 ± 0.054 | 0.132 ± 0.016
21 | C[C@@H]1COCCN1c1cc(-c2ccnn2C)c2ccnc(-c3ccn[nH]3)c2n1 | 1.14 ± 0.056 | 1.19 ± 0.041 | 1.18 ± 0.085 | 1.17 ± 0.069 | 1.14 ± 0.082 | 1.06 ± 0.056 | 1.04 ± 0.048 | 0.919 ± 0.036 | 0.719 ± 0.039 | 0.461 ± 0.023 | 0.367 ± 0.01
22 | C[C@]1(O)C[C@@H](c2nc(-c3ccc4ccc(-c5ccccc5)nc4c3)c3c(N)nccn32)C1 [Linsitinib] | 1.13 ± 0.073 | 1.17 ± 0.016 | 1.18 ± 0.021 | 1.159 ± 0.0094 | 1.16 ± 0.065 | 1.14 ± 0.021 | 1.13 ± 0.039 | 1.11 ± 0.04 | 1.09 ± 0.035 | 1.07 ± 0.019 | 0.978 ± 0.057
23 | COc1c(OCCCN2CCOCC2)ccc2c1N=C(NC(=O)c1cnc(N)nc1)N1CCN=C21 [Copanlisib] | 1.09 ± 0.061 | 1.12 ± 0.062 | 1 ± 0.026 | 0.7483 ± 0.0065 | 0.631 ± 0.025 | 0.516 ± 0.018 | 0.469 ± 0.011 | 0.435 ± 0.018 | 0.425 ± 0.017 | 0.403 ± 0.0053 | 0.368 ± 0.002
24 | CN1CCN(c2ccc3nc(-c4c(N)c5c(F)cccc5[nH]c4=O)[nH]c3c2)CC1 [Dovitinib] | 1.12 ± 0.039 | 1.17 ± 0.013 | 1.17 ± 0.033 | 1.15 ± 0.037 | 1.18 ± 0.028 | 1.15 ± 0.038 | 1.11 ± 0.037 | 1.138 ± 0.01 | 0.977 ± 0.034 | 0.656 ± 0.019 | 0.294 ± 0.038
25 | COCc1c(-c2cc3cc(C)cc(OC)c3s2)c2c(N)ncnn2c1CN1CCNC(=O)C1 [Rogaratinib] | 1.11 ± 0.051 | 1.16 ± 0.028 | 1.16 ± 0.088 | 1.16 ± 0.043 | 1.15 ± 0.03 | 1.15 ± 0.018 | 1.12 ± 0.082 | 1.14 ± 0.061 | 1.09 ± 0.018 | 1.04 ± 0.019 | 0.898 ± 0.038
26 | CN1CCC(COc2cnc(-c3cccc(Cn4nc(-c5cccc(C#N)c5)ccc4=O)c3)nc2)CC1 [Tepotinib] | 1.11 ± 0.034 | 1.21 ± 0.032 | 1.14 ± 0.055 | 1.16 ± 0.039 | 1.16 ± 0.043 | 1.15 ± 0.065 | 1.18 ± 0.067 | 1.16 ± 0.096 | 1.14 ± 0.08 | 1.1 ± 0.044 | 0.865 ± 0.047
